Measured values from article PMC4489529 (Antiviral chemistry & chemotherapy, 2014).
Like-named read-outs stand apart in the source and are kept apart here.

Columns and labels:
in vitro = conditions: human, Caco-2, pH 7.4
[1] = pH 7.4, reported for the parent compound; cited from earlier work
U373-MAGI-CXCR4CEM cells = conditions: at 5 μM, data not shown
[2] = buffer
Caco-2 cells [3] = system: Caco-2 cells
Caco-2 cells [4] = assay: Caco-2 assay to assess permeability; conditions: divalerate prodrug versus parent drug

Row | SMILES | recovery at 60 min, 10 μM (in vitro) [%] | Half-life at pH 7.4 [1] [h] | Decrease in cell proliferation (U373-MAGI-CXCR4CEM cells) | Half-life at pH 2.0 [2] [h] | Half-life at pH 4.65 [2] [h] | Half-life at pH 7.4 [2] [h] | Permeability (Caco-2 cells [3]; Caco-2) [cm/s] | Permeability of prodrug relative to parent compound (Caco-2 cells [3]; Caco-2) | Permeability (Caco-2 cells [3]; Caco-2, pH 7.4) | Permeability of prodrug relative to parent compound (Caco-2 cells [4]) [fold]
1 | Nc1ncn([C@H]2C[C@H](O)[C@@H](CO)O2)c(=O)n1 [Decitabine, 5-aza-2′-deoxycytidine] | 91 | 12.9 ±0.9 |  |  |  |  |  |  |  | 
2 | CCCCC(=O)OC[C@H]1O[C@@H](n2cnc(N)nc2=O)C[C@@H]1OC(=O)CCCC [Decitabine divalerate, decitabine divalerate] |  |  | less than 5% | 17 | 36 | 28 | 3.2e-06 | fourfold higher | 3.2 10^−6 cm/s | 
3 | CCCCC(=O)OC[C@H]1O[C@@H](n2ccc(N)nc2=O)C(F)(F)[C@@H]1OC(=O)CCCC [Gemcitabine divalerate, gemcitabine divalerate] |  |  |  | 85 | 247 | 135 | 2.1e-06 |  | 2.1 10^−6 cm/s | 4.2
4 | Nc1ccn([C@@H]2O[C@H](CO)[C@@H](O)C2(F)F)c(=O)n1 [Gemcitabine, 2′,2′-difluoro-2′-deoxycytidine] | 111 |  |  |  |  |  |  |  |  | 
